# In US10738028B2, “Spiro three-membered ring, spiro five-membered ring peptide deformylase inhibitor and use thereof in antibacteria and anti-tumor” (priority 2016, dated 2020):
# Columns and labels:
# Assay type in all cases: cell-based
# [1] = tested on: methicillin-sensitive Staphylococcus epidermidis (MSSE); assay: MIC, two-fold agar dilution (CLSI), clinical isolates
# Summary of the method: (§1)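 Susceptibility was tested using CLSI two-fold agar dilution against the strains examined.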
# [2] = tested on: Escherichia coli (including ESBLs, non-ESBLs); assay: as above
# Summary of the method: as §1
# [3] = tested on: methicillin-resistant Staphylococcus epidermidis (MRSE); assay: as above
# Summary of the method: as §1
# [4] = tested on: Moraxella catarrhalis (BCA); assay: as above; details: for Anti-bacterial activity (MIC), strain BCA 14-10: clinical isolate BCA 14-10
# Summary of the method: as §1
# [5] = tested on: Enterococcus faecalis (EFA); assay: as above
# Summary of the method: as §1
# [6] = tested on: methicillin-resistant Staphylococcus aureus (MRSA); assay: as above
# Summary of the method: as §1
# [7] = tested on: Enterococcus faecium (EFM); assay: as above
# Summary of the method: as §1
# [8] = tested on: methicillin-sensitive Staphylococcus aureus (MSSA); assay: as above
# Summary of the method: as §1
# [9] = tested on: Streptococcus pneoumoniae (SPN); assay: as above
# Summary of the method: as §1
# [10] = tested on: HCT-116 colorectal cancer cell line; assay: CCK-8 proliferation inhibition; details: Homo sapiens, HCT-116, 72 h, concentration of 30 μM; 72 hours; CCK-8; read-out: HCT116 inhibition rate/%
# Summary of the method: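 Cells were plated overnight at 2000 cells/well, then compound in culture medium was added at a range of final concentrations. After 72 hours in a CO2 incubator, medium was replaced with 1:10 CCK-8 solution for the read-out.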
smiles,measurement,setting,value
"CCCC[C@H](CC(=O)NO)C(=O)N1CC2(CC2)C[C@H]1C(=O)Nc1ncccc1F [Example 49, (S)—N-(3-fluoropyridin-2-yl)-5-((R)-2-(2-(hydroxyamino)-2-oxoethyl)hexanoyl)-5-azaspiro[2.4]heptane-6-amide]","Anti-bacterial activity (MIC), strain MSSE 15-3",[1]; clinical isolate MSSE 15-3,> 32 mg/L
same,"Anti-bacterial activity (MIC), strain MSSE 15-4",[1]; clinical isolate MSSE 15-4,> 32 mg/L
same,"Anti-bacterial activity (MIC), strain MSSE 15-5",[1]; clinical isolate MSSE 15-5,> 32 mg/L
same,"Anti-bacterial activity (MIC), strain MSSE 15-6",[1]; clinical isolate MSSE 15-6,> 32 mg/L
same,"Anti-bacterial activity (MIC), strain ECO+ 15-1",[2]; clinical isolate ECO+ 15-1,> 32 mg/L
same,"Anti-bacterial activity (MIC), strain ECO+ 15-2",[2]; clinical isolate ECO+ 15-2,> 32 mg/L
same,"Anti-bacterial activity (MIC), strain ECO+ 15-3",[2]; clinical isolate ECO+ 15-3,> 32 mg/L
same,"Anti-bacterial activity (MIC), strain ECO+ 15-4",[2]; clinical isolate ECO+ 15-4,> 32 mg/L
same,"Anti-bacterial activity (MIC), strain ECO− 15-1",[2]; clinical isolate ECO− 15-1,> 32 mg/L
same,"Anti-bacterial activity (MIC), strain ECO− 15-2",[2]; clinical isolate ECO− 15-2,> 32 mg/L
same,"Anti-bacterial activity (MIC), strain ECO− 15-3",[2]; clinical isolate ECO− 15-3,> 32 mg/L
same,"Anti-bacterial activity (MIC), strain ECO− 15-4",[2]; clinical isolate ECO− 15-4,> 32 mg/L
same,"Anti-bacterial activity (MIC), strain MRSE 15-1",[3]; clinical isolate MRSE 15-1,> 32 mg/L
same,"Anti-bacterial activity (MIC), strain MRSE 15-2",[3]; clinical isolate MRSE 15-2,> 32 mg/L
same,"Anti-bacterial activity (MIC), strain MRSE 15-3",[3]; clinical isolate MRSE 15-3,> 32 mg/L
same,"Anti-bacterial activity (MIC), strain MRSE 15-7",[3]; clinical isolate MRSE 15-7,> 32 mg/L
same,"Anti-bacterial activity (MIC), strain BCA 14-1",[4]; clinical isolate BCA 14-1,> 32 mg/L
same,"Anti-bacterial activity (MIC), strain BCA 14-4",[4]; clinical isolate BCA 14-4,> 32 mg/L
same,"Anti-bacterial activity (MIC), strain BCA 14-5",[4]; clinical isolate BCA 14-5,4 mg/L
same,"Anti-bacterial activity (MIC), strain BCA 14-6",[4]; clinical isolate BCA 14-6,> 32 mg/L
same,"Anti-bacterial activity (MIC), strain BCA 14-7",[4]; clinical isolate BCA 14-7,> 32 mg/L
same,"Anti-bacterial activity (MIC), strain BCA 14-8",[4]; clinical isolate BCA 14-8,> 32 mg/L
same,"Anti-bacterial activity (MIC), strain BCA 14-10",[4],> 32 mg/L
same,"Anti-bacterial activity (MIC), strain EFA 15-1",[5]; clinical isolate EFA 15-1,> 32 mg/L
same,"Anti-bacterial activity (MIC), strain EFA 15-2",[5]; clinical isolate EFA 15-2,> 32 mg/L
same,"Anti-bacterial activity (MIC), strain EFA 15-3",[5]; clinical isolate EFA 15-3,> 32 mg/L
same,"Anti-bacterial activity (MIC), strain EFA 15-4",[5]; clinical isolate EFA 15-4,> 32 mg/L
same,"Anti-bacterial activity (MIC), strain EFA 15-5",[5]; clinical isolate EFA 15-5,> 32 mg/L
same,"Anti-bacterial activity (MIC), strain EFA 15-6",[5]; clinical isolate EFA 15-6,> 32 mg/L
same,"Anti-bacterial activity (MIC), strain EFA 15-9",[5]; clinical isolate EFA 15-9,> 32 mg/L
same,"Anti-bacterial activity (MIC), strain MRSA 15-1",[6]; clinical isolate MRSA 15-1,8 mg/L
same,"Anti-bacterial activity (MIC), strain MRSA 15-3",[6]; clinical isolate MRSA 15-3,16 mg/L
same,"Anti-bacterial activity (MIC), strain MRSA 15-4",[6]; clinical isolate MRSA 15-4,16 mg/L
same,"Anti-bacterial activity (MIC), strain EFM 15-1",[7]; clinical isolate EFM 15-1,> 32 mg/L
same,"Anti-bacterial activity (MIC), strain EFM 15-2",[7]; clinical isolate EFM 15-2,> 32 mg/L
same,"Anti-bacterial activity (MIC), strain EFM 15-3",[7]; clinical isolate EFM 15-3,> 32 mg/L
same,"Anti-bacterial activity (MIC), strain EFM 15-4",[7]; clinical isolate EFM 15-4,> 32 mg/L
same,"Anti-bacterial activity (MIC), strain EFM 15-5",[7]; clinical isolate EFM 15-5,2 mg/L
same,"Anti-bacterial activity (MIC), strain EFM 15-6",[7]; clinical isolate EFM 15-6,2 mg/L
same,"Anti-bacterial activity (MIC), strain MSSA 15-3",[8]; clinical isolate MSSA 15-3,16 mg/L
same,"Anti-bacterial activity (MIC), strain MSSA 15-4",[8]; clinical isolate MSSA 15-4,16 mg/L
same,"Anti-bacterial activity (MIC), strain MSSA 15-5",[8]; clinical isolate MSSA 15-5,> 32 mg/L
same,"Anti-bacterial activity (MIC), strain MSSA 15-6",[8]; clinical isolate MSSA 15-6,> 32 mg/L
same,"Anti-bacterial activity (MIC), strain SPN 16-2",[9]; clinical isolate SPN 16-2,4 mg/L
same,"Anti-bacterial activity (MIC), strain SPN 16-4",[9]; clinical isolate SPN 16-4,4 mg/L
same,inhibition at 30 µM,[10],8%
O=CN(O)C[C@@H](CC1CCCC1)C(=O)N1CC2(CC2)C[C@H]1C(=O)Nc1ccc(F)cn1 [Example 28],MIC (anti-bacterial activity),[1]; strain MSSE 15-3,0.125 mg/L
same,MIC (anti-bacterial activity),[1]; strain MSSE 15-4,0.125 mg/L
same,MIC (anti-bacterial activity),[1]; strain MSSE 15-5,0.125 mg/L
same,MIC (anti-bacterial activity),[1]; strain MSSE 15-6,0.06 mg/L
same,MIC (anti-bacterial activity),[2]; strain ECO+ 15-1,16 mg/L
same,MIC (anti-bacterial activity),[2]; strain ECO+ 15-2,64 mg/L
same,MIC (anti-bacterial activity),[2]; strain ECO+ 15-3,64 mg/L
same,MIC (anti-bacterial activity),[2]; strain ECO+ 15-4,32 mg/L
same,MIC (anti-bacterial activity),[2]; strain ECO− 15-1,32 mg/L
same,MIC (anti-bacterial activity),[2]; strain ECO− 15-2,32 mg/L
same,MIC (anti-bacterial activity),[2]; strain ECO− 15-3,64 mg/L
same,MIC (anti-bacterial activity),[2]; strain ECO− 15-4,64 mg/L
same,MIC (anti-bacterial activity),[3]; strain MRSE 15-1,0.125 mg/L
same,MIC (anti-bacterial activity),[3]; strain MRSE 15-2,0.5 mg/L
same,MIC (anti-bacterial activity),[3]; strain MRSE 15-3,0.5 mg/L
same,MIC (anti-bacterial activity),[3]; strain MRSE 15-7,0.5 mg/L
same,"Anti-bacterial activity (MIC), strain BCA 14-10",[4],0.25 mg/L
same,MIC (anti-bacterial activity),[4]; strain BCA 14-1,1 mg/L
same,MIC (anti-bacterial activity),[4]; strain BCA 14-4,1 mg/L
same,MIC (anti-bacterial activity),[4]; strain BCA 14-5,0.25 mg/L
same,MIC (anti-bacterial activity),[4]; strain BCA 14-6,1 mg/L
same,MIC (anti-bacterial activity),[4]; strain BCA 14-7,0.125 mg/L
same,MIC (anti-bacterial activity),[4]; strain BCA 14-8,0.5 mg/L
same,MIC (anti-bacterial activity),[5]; strain EFA 15-1,2 mg/L
same,MIC (anti-bacterial activity),[5]; strain EFA 15-2,2 mg/L
same,MIC (anti-bacterial activity),[5]; strain EFA 15-3,2 mg/L
same,MIC (anti-bacterial activity),[5]; strain EFA 15-4,2 mg/L
same,MIC (anti-bacterial activity),[5]; strain EFA 15-5,2 mg/L
same,MIC (anti-bacterial activity),[5]; strain EFA 15-6,2 mg/L
same,MIC (anti-bacterial activity),[5]; strain EFA 15-9,2 mg/L
same,MIC (anti-bacterial activity),[6]; strain MRSA 15-1,0.125 mg/L
same,MIC (anti-bacterial activity),[6]; strain MRSA 15-2,0.125 mg/L
same,MIC (anti-bacterial activity),[6]; strain MRSA 15-3,0.125 mg/L
same,MIC (anti-bacterial activity),[6]; strain MRSA 15-4,0.125 mg/L
same,MIC (anti-bacterial activity),[7]; strain EFM 15-1,0.5 mg/L
same,MIC (anti-bacterial activity),[7]; strain EFM 15-2,1 mg/L
same,MIC (anti-bacterial activity),[7]; strain EFM 15-3,0.125 mg/L
same,MIC (anti-bacterial activity),[7]; strain EFM 15-4,1 mg/L
same,MIC (anti-bacterial activity),[7]; strain EFM 15-5,1 mg/L
same,MIC (anti-bacterial activity),[7]; strain EFM 15-6,1 mg/L
same,MIC (anti-bacterial activity),[8]; strain MSSA 15-3,0.125 mg/L
same,MIC (anti-bacterial activity),[8]; strain MSSA 15-4,0.125 mg/L
same,MIC (anti-bacterial activity),[8]; strain MSSA 15-5,0.125 mg/L
same,MIC (anti-bacterial activity),[8]; strain MSSA 15-6,0.125 mg/L
same,MIC (anti-bacterial activity),[9]; strain SPN 16-4,1 mg/L
same,inhibition at 30 µM,[10],21%
